Measurements taken from patent US6716863B2, “Heterocyclic compounds their production and use” (Takeda Chemical Industries, Ltd., priority 2000, dated 2004).

| melting point | SMILES |
| --- | --- |
| 154 to 155 °C | Cc1ccc(/C=C/c2nc(COc3ccc(CCCCn4ccnn4)cc3)co2)cc1 [Example 1] |
| 124 to 125 °C | Fc1ccc(/C=C/c2nc(COc3ccc(CCCCn4ccnn4)cc3)co2)cc1 [Example 2, 1-{4-[4-({2-[(E)-2-(4-fluorophenyl)ethenyl]-1,3-oxazol-4-yl}methoxy)phenyl]butyl}-1H-1,2,3-triazole] |
| 105 to 106 °C | Fc1ccc(/C=C/c2nc(COc3cccc(CCCn4ccnn4)c3)co2)cc1 [Example 3, 1-{3-[3-({2-[(E)-2-(4-fluorophenyl)ethenyl]-1,3-oxazol-4-yl}methoxy)phenyl]propyl}-1H-1,2,3-triazole] |
| 157 to 158 °C | FC(F)(F)c1ccc(/C=C/c2nc(COc3ccc(CCCn4ccnn4)cc3)co2)cc1 [Example 5, 1-(3-{4-[(2-((E)-2-[4-(trifluoromethyl)phenyl]ethenyl)-1,3-oxazol-4-yl)methoxy]phenyl}propyl)-1H-1,2,3-triazole] |
| 115 to 116 °C | FC(F)(F)c1ccc(/C=C/c2nc(COc3cccc(CCCn4ccnn4)c3)co2)cc1 [Example 6, 1-(3-{3-[(2-((E)-2-[4-(trifluoromethyl)phenyl]ethenyl}-1,3-oxazol-4-yl)methoxy]phenyl}propyl)-1H-1,2,3-triazole] |
| 115 to 117 °C | Fc1ccc(/C=C/c2nc(COc3ccc(CCCCn4ccnn4)cc3)co2)c(F)c1 [Example 7, 1-{4-[4-({2-[(E)-2-(2,4-difluorophenyl)ethenyl]-1,3-oxazol-4-yl}methoxy)phenyl]butyl}-1H-1,2,3-triazole] |
| 89 to 90 °C | Fc1ccc(/C=C/c2nc(COc3cccc(CCCn4ccnn4)c3)co2)c(F)c1 [Example 8, 1-{3-[3-({2-[(E)-2-(2,4-difluorophenyl)ethenyl]-1,3-oxazol-4-yl}methoxy)phenyl]propyl}-1H-1,2,3-triazole] |
| 108 to 109 °C | Cc1ccc(/C=C/c2nc(COc3ccc(CCCCn4ccnc4CCO)cc3)co2)cc1 [Example 10, 2-[1-[4-[4-[[2-[(E)-2-(4-methylphenyl)ethenyl]-1,3-oxazol-4-yl]methoxy]phenyl]butyl]-1H-imidazol-2-yl]-1-ethanol] |
| 109 to 111 °C | Cc1cccc(/C=C/c2nc(COc3ccc(CCCCn4ccnc4CCO)cc3)co2)c1 [Example 11, 2-[1-[4-[4-[[2-[(E)-2-(3-methylphenyl)ethenyl]-1,3-oxazol-4-yl]methoxy]phenyl]butyl]-1H-imidazol-2-yl]-1-ethanol] |
| 91 to 93 °C | Cc1ccccc1/C=C/c1nc(COc2ccc(CCCCn3ccnc3CCO)cc2)co1 [Example 12, 2-[1-[4-[4-[[2-[(E)-2-(2-methylphenyl)ethenyl]-1,3-oxazol-4-yl]methoxy]phenyl]butyl]-1H-imidazol-2-yl]-1-ethanol] |
| 94 to 95 °C | CCc1ccc(/C=C/c2nc(COc3ccc(CCCCn4ccnc4CCO)cc3)co2)cc1 [Example 13, 2-[1-[4-[4-[[2-[(E)-2-(4-ethylphenyl)ethenyl]-1,3-oxazol-4-yl]methoxy]phenyl]butyl]-1H-imidazol-2-yl]-1-ethanol] |
| 130 to 132 °C | OCCc1nccn1CCCCc1ccc(OCc2coc(/C=C/c3ccc(F)cc3)n2)cc1 [Example 14, 2-(1-(4-[4-({2-[(E)-2-(4-fluorophenyl)ethenyl]-1,3-oxazol-4-yl}methoxy)phenyl]butyl)-1H-imidazol-2-yl)-1-ethanol] |
| 127 to 128 °C | OCCc1nccn1CCCCc1ccc(OCc2coc(/C=C/c3ccc(Cl)cc3)n2)cc1 [Example 15, 2-[1-[4-[4-[[2-[(E)-2-(4-chlorophenyl)ethenyl]-1,3-oxazol-4-yl]methoxy]phenyl]butyl]-1H-imidazol-2-yl]-1-ethanol] |
| 149 to 150 °C | OCCc1nccn1CCCCc1ccc(OCc2coc(/C=C/c3ccc(Br)cc3)n2)cc1 [Example 16, 2-[1-[4-[4-[[2-[(E)-2-(4-bromophenyl)ethenyl]-1,3-oxazol-4-yl]methoxy]phenyl]butyl]-1H-imidazol-2-yl]-1-ethanol] |
| 93 to 95 °C | OCCc1nccn1CCCCc1ccc(OCc2coc(/C=C/c3ccc(F)cc3F)n2)cc1 [Example 19, 2-[1-[4-[4-[[2-[(E)-2-(2,4-difluorophenyl)ethenyl]-1,3-oxazol-4-yl]methoxy]phenyl]butyl]-1H-imidazol-2-yl]-1-ethanol] |
| 94 to 96 °C | OCCc1nccn1CCCc1ccc(OCc2coc(/C=C/c3ccc(F)cc3F)n2)cc1 [Example 20, 2-[1-[3-[4-[[2-[(E)-2-(2,4-difluorophenyl)ethenyl]-1,3-oxazol-4-yl]methoxy]phenyl]propyl]-1H-imidazol-2-yl]-1-ethanol] |
| 106 to 107 °C | OCCc1nccn1CCCCc1ccc(OCc2coc(/C=C/c3c(F)cccc3F)n2)cc1 [Example 21] |
| 102 to 104 °C | Cc1cccc(/C=C/c2nc(COc3ccc(CCCCn4ccnc4CC(O)CO)cc3)co2)c1 (stereo not shown) [Example 22, 3-(1-{4-[4-({2-[(E)-2-(3-methylphenyl)ethenyl]-1,3-oxazol-4-yl}methoxy)phenyl]butyl}-1H-imidazol-2-yl)-1,2-propanediol] |
| 114 to 116 °C | OCC(O)Cc1nccn1CCCCc1ccc(OCc2coc(/C=C/c3ccc(F)cc3)n2)cc1 (stereo not shown) [Example 23, 3-(1-{4-[4-({2-[(E)-2-(4-fluorophenyl)ethenyl]-1,3-oxazol-4-yl}methoxy)phenyl]butyl}-1H-imidazol-2-yl)-1,2-propanediol] |
| 142 to 143 °C | OCC(O)Cc1nccn1CCCCc1ccc(OCc2coc(/C=C/c3ccc(C(F)(F)F)cc3)n2)cc1 (stereo not shown) [Example 24, 3-[1-(4-(4-[(2-{(E)-2-[4-(trifluoromethyl)phenyl]ethenyl}-1,3-oxazol-4-yl)methoxy]phenyl}butyl)-1H-imidazol-2-yl]-1,2-propanediol] |
| 102 to 104 °C | OCC(O)Cc1nccn1CCCc1cccc(OCc2coc(/C=C/c3ccc(C(F)(F)F)cc3)n2)c1 (stereo not shown) [Example 25, 3-[1-(3-{3-[(2-{(E)-2-[4-(trifluoromethyl)phenyl]ethenyl}-1,3-oxazol-4-yl)methoxy]phenyl}propyl)-1H-imidazol-2-yl]-1,2-propanediol] |
| 126 to 128 °C | OCC(O)Cc1nccn1CCCCc1ccc(OCc2coc(/C=C/c3ccc(F)cc3F)n2)cc1 (stereo not shown) [Example 26, 3-(1-{4-[4-({2-[(E)-2-(2,4-difluorophenyl)ethenyl]-1,3-oxazol-4-yl]methoxy)phenyl]butyl}-1H-imidazol-2-yl)-1,2-propanediol] |
| 123 to 125 °C | OCC(O)Cc1nccn1CCCCc1ccc(OCc2coc(/C=C/c3c(F)cccc3F)n2)cc1 (stereo not shown) [Example 28, 3-[1-[4-[4-[[2-[(E)-2-(2,6-difluorophenyl)ethenyl]-1,3-oxazol-4-yl]methoxy]phenyl]butyl]-1H-imidazol-2-yl]-1,2-propanediol] |
| 104 to 106 °C | OC[C@H](O)Cc1nccn1CCCCc1ccc(OCc2coc(/C=C/c3ccc(F)cc3F)n2)cc1 [Example 29] |
| 106 to 108 °C | OC[C@@H](O)Cc1nccn1CCCCc1ccc(OCc2coc(/C=C/c3ccc(F)cc3F)n2)cc1 [Example 30] |
